Measured values taken from article PMC4654502, “Early Gelatinase Activity Is Not a Determinant of Long-Term Recovery after Traumatic Brain Injury in the Immature Mouse” (PLoS ONE, 2015).

Legend:
[1] = Body weight after surgery at p21; type: in vivo, male C57Bl/6J mice; conditions: 25 mg/kg s.c. at 2, 4, 24, 48 h post-injury or sham-operation
Description: (§1) The controlled cortical impact model of TBI was used as previously described. TBI to the p21 mouse approximates a toddler-aged child, based upon the structural, biochemical and behavioral characteristics of this age. Pups were anaesthetized with 1.25% 2,2,2-tribromoethanol (Avertin; Sigma-Aldrich, St. Louis, MO) in isotonic saline (i.p. bolus at 0.02 mL/g body weight). After craniotomy, mice were subjected to a controlled cortical impact at 4.5 m/s velocity and 1.73 mm depth of penetration, for a sustained depression of 150 ms, using a 3.0 mm convex impactor tip. Mice were maintained on a water-circulating heating pad throughout surgery and recovery. Following impact, the scalp was closed with sutures and each animal administered 0.5 ml of isotonic saline subcutaneously (s.c.) to prevent post-operative dehydration. Sham-operated mice underwent identical surgical procedures, including craniotomy, without receiving the cortical impact. All mice were closely monitored for 1–2 hours post-surgery until return of the righting reflex and full mobilization. Mice were then returned to group-housing, and weighed post-surgery at days 1, 3, and weekly thereafter till the end of the study.

TBI in adult mice = conditions: equivalent dose; cited from earlier work
[2] = tested on: controlled cortical impact TBI at p21; experiment: Open field test at adulthood after TBI at p21; type: in vivo, male C57Bl/6J mice; conditions: 25 mg/kg s.c. at 2, 4, 24, 48 h post-injury; tested ~2 months post-injury
Description: as §1
The treatment regime was based upon several considerations. […]
Exploratory behaviors were assessed over a 10 min session in an automated open field arena (40.6 cm x 40.6 cm; Kinder Scientific, Poway, CA). […]

[3] = tested on: controlled cortical impact TBI at p21; experiment: Three-chamber social approach task at adulthood after TBI at p21; type: in vivo, male C57Bl/6J mice; conditions: 25 mg/kg s.c. at 2, 4, 24, 48 h post-injury
Description: as §1, with “study. […]” for “study.”
The three-chamber paradigm allows for the evaluation of social affiliation and social recognition in mice. […] Data were expressed as time spent in each chamber (% of total time).

[4] = tested on: controlled cortical impact TBI at p21; experiment: Stereological volumes and hippocampal cell counts at adulthood after TBI at p21; type: in vivo, male C57Bl/6J mice; conditions: ~2 months post-injury
Description: as §1
The treatment regime was based upon several considerations. […] Thirdly, we limited treatment to a period of 48 h post-injury in order to minimize potential off-target effects on ongoing brain development processes at this time, given the known roles that these gelatinases play in postnatal synaptic maturation. For acute studies (gelatin zymography and histology) animals were euthanized at 4 hours and for in situ zymography, they were euthanized 1 hour after the last injection. For long-term studies (behavioral and cognitive assessments and histology) animals were euthanized at ~2 months post-injury. Euthanasia was by overdose with 2.5% Avertin i.p. followed by decapitation or cardiac transperfusion as described below.
Upon completion of behavioral and cognitive assessments at ~ 2 months post-injury, anesthetized mice were perfused transcardially with ice-cold saline followed by 4% paraformaldehyde in 0.1M PBS. Collected brains were post-fixed overnight in 4% PFA and then transferred into a 30% sucrose solution for 72 h before being embedded in Neg50^TM (Richard-Allan Scientific, Thermo Fisher Scientific, Fremont, CA). Serial coronal sections spanning the entire cortex were cut at 20 μm or 40 μm (for time points of 48 h or 2 months post-injury, respectively).
An estimation of intact cortical and hippocampal volumes was performed on 40 μm coronal sections stained with cresyl violet, collected at ~ 2 months post-injury. The unbiased Cavalieri method was performed with StereoInvestigator software (MicroBrightField v10.21.1, Williston, VT, USA), using a Nikon E600W microscope configured with a motorized stage, MAC 5000 controller and Retiga 2000R color digital camera (QImaging, Surrey, BC, Canada). Spanning Bregma 1.5 to -3.8 mm, 12–16 sections containing cortex and 7–10 sections containing hippocampus were assessed per brain, using a sampling interval of 8 and a grid size of either 200 μm or 75 μm for cortex and hippocampus, respectively. Measurements were confined to the dorsal hemispheres as previously described using a 2x objective for the cortex and 4x for the hippocampus. The Gundersen mean coefficient of error (m = 1) was maintained ≤0.03 for cortical volume estimates and ≤0.08 for the hippocampus and dentate gyrus (DG). Group means are expressed as estimated volume (mm³). Certain sections were excluded from stereological analyses due to poor tissue integrity, folding or incomplete staining. In these cases, the section was deemed to be ‘missing’ and estimation for this section was calculated from the StereoInvestigator program based upon the adjacent sections. This was permitted for a maximum of 2 non-adjacent sections per brain. […]

In the case of O=S(=O)(CC1CS1)c1ccc(Oc2ccc(O)cc2)cc1 (stereo not shown) [p-OH SB-3CT], the “animal weight over development” value [1] is listed as “no differences between treatment or injury groups”, the “functional and neuropathological outcomes after severe TBI in adult mice” value (TBI in adult mice) is listed as “treatment-dependent improvement in functional and neuropathological outcomes” and the “injury-induced hyperactivity (total distance traveled, open field)” value [2] is listed as “did not ameliorate this hyperactivity”. For the same compound, the “percentage time spent in the center of the open field (anxiety-like behavior)” value [2] was “neither TBI nor p-OH SB-3CT treatment affected this measure”, the “three-chamber task stage 2, preference for sociability” value ([3]; groups = injury or drug treatment) was “no overall differences between groups” and the “three-chamber task stage 3, lack of preference for social novelty after TBI” value ([3]; tested at adulthood) was “not rescued by p-OH SB-3CT”. For the same compound, the contralateral cortical volume ([4]; TBI groups or sham groups compared) was “did not alter contralateral cortical volumes”, the “ipsilateral hippocampal volume, TBI mice vs vehicle-treated” value ([4]; TBI, p = 0.0835) was “reduced hippocampal volumes, that did not reach statistical significance” and the “contralateral dentate gyrus volume” value ([4]; sham and TBI mice) was “did not affect contralateral DG volume”. For the same compound, the contralateral hippocampus volume ([4]; sham or TBI brains) was “did not affect the contralateral hippocampus volume”, the “ipsilateral dentate gyrus volume” value ([4]; sham or TBI groups) was “no effect of drug treatment” and the ipsilateral cortical volume ([4]; sham or injured animals) was “did not influence ipsilateral cortical volumes”. For the same compound, the “ipsilateral hippocampal volume, sham mice vs vehicle-treated sham” value ([4]; sham, p = 0.0669) was “tended to exhibit larger hippocampal volumes”.
